Surviving fraction data for nine test systems are collected here from the supplement of paper PMC6045584.

± gives the standard deviation of the averaged measurements.

Compound in one assay: O=C(CCCCCCC(=O)Nc1ccccc1)NO [VORINOSTAT]
Kind of assay: surviving fraction relative to DMSO-only wells; higher = less growth inhibition. The following applies: exposure time: 5 days. In short, it runs like this:
(§1)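 Inhibitors were tested at 0.5, 1, 5, 10, 50, 100, 500 and 1000 nM, applied continuously for five days beginning 24 hours after log-phase tumour cells were seeded at 250–500 per well in 384-well plates. CellTiter-Glo luminescence served as the viability measure, expressed as surviving fraction against the median of DMSO-only wells. Each line, screened three times, was kept only with replicate Pearson r >0.7 and median Z' >0.3.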

Compound in the next assay: Cn1c(=O)n(-c2ccc(C(C)(C)C#N)cc2)c2c3cc(-c4cnc5ccccc5c4)ccc3ncc21 [BEZ-235]
The assay is described as above. The following applies: exposure time: 5 days. In short, it runs like this:
as §1

In the case of HCC202 BREAST, the surviving fraction came to 1.19 ± 0.26 with VORINOSTAT (0.5 nM); 1.12 ± 0.13 in the assay with VORINOSTAT (1 nM); 1.31 ± 0.11 with VORINOSTAT (5 nM); 1.12 ± 0.12 with VORINOSTAT (10 nM); 0.808 ± 0.14 with VORINOSTAT (50 nM); 0.777 ± 0.34 with VORINOSTAT (100 nM). Further, the surviving fraction with VORINOSTAT (500 nM) amounted to 0.476 ± 0.12; with VORINOSTAT (1000 nM), 0.295 ± 0.049; with BEZ-235 (0.5 nM) it was 1.02 ± 0.32; with BEZ-235 (1 nM) it was 1.07 ± 0.036; with BEZ-235 (5 nM), 1.21 ± 0.22; with BEZ-235 (10 nM), 1.34 ± 0.32. Also, the surviving fraction with BEZ-235 (50 nM) was determined as 1.07 ± 0.32; in the assay with BEZ-235 (100 nM), 0.722 ± 0.27; in the assay with BEZ-235 (500 nM) it was 0.388 ± 0.089; in the assay with BEZ-235 (1000 nM), 0.232 ± 0.046.
In the case of SCC003 HEADNECK, the surviving fraction with VORINOSTAT (0.5 nM) is 1 ± 0.086; in the assay with VORINOSTAT (1 nM) it was 1.01 ± 0.15; with VORINOSTAT (5 nM), 1.02 ± 0.1; in the assay with VORINOSTAT (10 nM), 1.01 ± 0.093; with VORINOSTAT (50 nM) it was 1.09 ± 0.067; in the assay with VORINOSTAT (100 nM), 1.12 ± 0.091. The surviving fraction is 1.14 ± 0.12 in the assay with VORINOSTAT (500 nM); 0.847 ± 0.16 in the assay with VORINOSTAT (1000 nM); 1.06 ± 0.089 with BEZ-235 (0.5 nM); 1.11 ± 0.036 in the assay with BEZ-235 (1 nM); 1.08 ± 0.13 in the assay with BEZ-235 (5 nM); 1.08 ± 0.11 in the assay with BEZ-235 (10 nM). Besides, the surviving fraction with BEZ-235 (50 nM) amounted to 0.776 ± 0.12; in the assay with BEZ-235 (100 nM), 0.717 ± 0.093; with BEZ-235 (500 nM), 0.366 ± 0.02; in the assay with BEZ-235 (1000 nM) it was 0.289 ± 0.04.
KPD BONE: the surviving fraction in the assay with VORINOSTAT (0.5 nM) worked out at 0.943 ± 0.058; in the assay with VORINOSTAT (1 nM), 0.981 ± 0.032; with VORINOSTAT (5 nM), 1.09 ± 0.068; with VORINOSTAT (10 nM), 1.02 ± 0.067; with VORINOSTAT (50 nM), 1.07 ± 0.074; with VORINOSTAT (100 nM), 0.994 ± 0.083. Besides, the surviving fraction with VORINOSTAT (500 nM) came to 0.907 ± 0.048; in the assay with VORINOSTAT (1000 nM) it was 0.65 ± 0.021; with BEZ-235 (0.5 nM), 0.977 ± 0.065; with BEZ-235 (1 nM), 1.01 ± 0.061; in the assay with BEZ-235 (5 nM), 1 ± 0.024; with BEZ-235 (10 nM), 0.951 ± 0.032. The surviving fraction is 0.525 ± 0.029 with BEZ-235 (50 nM), 0.361 ± 0.0087 with BEZ-235 (100 nM), 0.0903 ± 0.0011 with BEZ-235 (500 nM) and 0.0727 ± 0.0025 in the assay with BEZ-235 (1000 nM).
For the test system HELA CERVIX, the surviving fraction with VORINOSTAT (0.5 nM) was 0.955 ± 0.049; with VORINOSTAT (1 nM), 0.942 ± 0.066; with VORINOSTAT (5 nM) it was 0.972 ± 0.042; in the assay with VORINOSTAT (10 nM), 0.939 ± 0.07; with VORINOSTAT (50 nM), 1.07 ± 0.057; in the assay with VORINOSTAT (100 nM), 1.06 ± 0.064. Besides, the surviving fraction was determined as 1.11 ± 0.037 with VORINOSTAT (500 nM); 1.01 ± 0.092 in the assay with VORINOSTAT (1000 nM); 1.05 ± 0.087 with BEZ-235 (0.5 nM); 1.09 ± 0.069 with BEZ-235 (1 nM); 1.112 ± 0.0048 in the assay with BEZ-235 (5 nM); 1.02 ± 0.035 with BEZ-235 (10 nM). Moreover, the surviving fraction came to 1.12 ± 0.061 with BEZ-235 (50 nM), 1.2 ± 0.028 with BEZ-235 (100 nM), 0.7 ± 0.019 with BEZ-235 (500 nM) and 0.4533 ± 0.0038 in the assay with BEZ-235 (1000 nM).
Take C33A CERVIX: the surviving fraction turned out to be 0.86 ± 0.078 in the assay with VORINOSTAT (0.5 nM); 0.952 ± 0.064 with VORINOSTAT (1 nM); 1.04 ± 0.031 with VORINOSTAT (5 nM); 1.05 ± 0.098 with VORINOSTAT (10 nM); 1.04 ± 0.15 in the assay with VORINOSTAT (50 nM); 1.05 ± 0.096 in the assay with VORINOSTAT (100 nM). The surviving fraction with VORINOSTAT (500 nM) came to 0.805 ± 0.014; with VORINOSTAT (1000 nM), 0.615 ± 0.048; with BEZ-235 (0.5 nM), 0.941 ± 0.029; in the assay with BEZ-235 (1 nM), 0.984 ± 0.064; in the assay with BEZ-235 (5 nM) it was 1.01 ± 0.098; in the assay with BEZ-235 (10 nM) it was 0.993 ± 0.081. For the same test system, the surviving fraction with BEZ-235 (50 nM) was determined as 0.62 ± 0.043; with BEZ-235 (100 nM), 0.349 ± 0.031; in the assay with BEZ-235 (500 nM), 0.15 ± 0.016; with BEZ-235 (1000 nM), 0.14 ± 0.011.
With HU09 BONE, the surviving fraction turned out to be 0.943 ± 0.054 in the assay with VORINOSTAT (0.5 nM); 0.922 ± 0.041 with VORINOSTAT (1 nM); 0.931 ± 0.095 with VORINOSTAT (5 nM); 0.969 ± 0.053 with VORINOSTAT (10 nM); 1.01 ± 0.092 in the assay with VORINOSTAT (50 nM); 0.968 ± 0.13 with VORINOSTAT (100 nM). The surviving fraction with VORINOSTAT (500 nM) turned out to be 0.721 ± 0.072; with VORINOSTAT (1000 nM) it was 0.4 ± 0.013; with BEZ-235 (0.5 nM), 1.04 ± 0.18; with BEZ-235 (1 nM), 1.07 ± 0.059; in the assay with BEZ-235 (5 nM), 1.19 ± 0.053; with BEZ-235 (10 nM), 1.12 ± 0.1. For the same test system, the surviving fraction with BEZ-235 (50 nM) turned out to be 0.572 ± 0.025; in the assay with BEZ-235 (100 nM), 0.416 ± 0.025; in the assay with BEZ-235 (500 nM), 0.181 ± 0.013; with BEZ-235 (1000 nM) it was 0.134 ± 0.006.
In the case of SCC47 HEADNECK, the surviving fraction was found to be 1.03 ± 0.04 in the assay with VORINOSTAT (0.5 nM); 1.03 ± 0.077 with VORINOSTAT (1 nM); 1.12 ± 0.034 with VORINOSTAT (5 nM); 1.02 ± 0.016 with VORINOSTAT (10 nM); 1.05 ± 0.023 with VORINOSTAT (50 nM); 1.1 ± 0.044 with VORINOSTAT (100 nM). For the same test system, the surviving fraction with VORINOSTAT (500 nM) came to 1.02 ± 0.083; with VORINOSTAT (1000 nM) it was 0.897 ± 0.028; in the assay with BEZ-235 (0.5 nM), 1.07 ± 0.091; with BEZ-235 (1 nM) it was 1.07 ± 0.019; with BEZ-235 (5 nM) it was 1.12 ± 0.019; with BEZ-235 (10 nM), 1.11 ± 0.016. In addition, the surviving fraction with BEZ-235 (50 nM) was 1.01 ± 0.092; with BEZ-235 (100 nM), 0.996 ± 0.085; with BEZ-235 (500 nM), 0.326 ± 0.023; with BEZ-235 (1000 nM), 0.33 ± 0.0059.
With SUM149.B1*.S BREAST, the surviving fraction with VORINOSTAT (0.5 nM) was determined as 1.05 ± 0.026; in the assay with VORINOSTAT (1 nM), 0.971 ± 0.049; in the assay with VORINOSTAT (5 nM) it was 1.02 ± 0.047; with VORINOSTAT (10 nM), 0.845 ± 0.031; in the assay with VORINOSTAT (50 nM), 1.06 ± 0.038; with VORINOSTAT (100 nM), 1.05 ± 0.052. The surviving fraction with VORINOSTAT (500 nM) is 0.82 ± 0.038; with VORINOSTAT (1000 nM), 0.523 ± 0.034; with BEZ-235 (0.5 nM), 1.11 ± 0.041; with BEZ-235 (1 nM), 1.12 ± 0.049; with BEZ-235 (5 nM), 1.14 ± 0.038; with BEZ-235 (10 nM) it was 1.12 ± 0.022. Moreover, the surviving fraction with BEZ-235 (50 nM) worked out at 1.039 ± 0.0098; with BEZ-235 (100 nM) it was 0.969 ± 0.072; with BEZ-235 (500 nM) it was 0.376 ± 0.028; with BEZ-235 (1000 nM) it was 0.21 ± 0.0038.
On to LM7 BONE, for which the surviving fraction with VORINOSTAT (0.5 nM) was 1.01 ± 0.1; with VORINOSTAT (1 nM) it was 0.999 ± 0.041; with VORINOSTAT (5 nM), 1.09 ± 0.059; with VORINOSTAT (10 nM), 1.03 ± 0.08; in the assay with VORINOSTAT (50 nM), 1.11 ± 0.12; with VORINOSTAT (100 nM) it was 1.1 ± 0.04. The surviving fraction in the assay with VORINOSTAT (500 nM) stood at 0.934 ± 0.12; with VORINOSTAT (1000 nM), 0.8 ± 0.032; in the assay with BEZ-235 (0.5 nM), 0.941 ± 0.042; with BEZ-235 (1 nM) it was 1 ± 0.1; with BEZ-235 (5 nM) it was 1.02 ± 0.094; in the assay with BEZ-235 (10 nM), 1.07 ± 0.062. The surviving fraction was 0.975 ± 0.077 with BEZ-235 (50 nM), 0.845 ± 0.063 in the assay with BEZ-235 (100 nM), 0.366 ± 0.016 with BEZ-235 (500 nM) and 0.312 ± 0.024 in the assay with BEZ-235 (1000 nM).
